Results as given in patent US7045658B2, “Formailide derivatives as beta2-adrenoreceptor agonists” (Glaxo Group Limited, priority 2001, dated 2006).

Biological target: T1, human beta 2 adrenoreceptor (Homo sapiens, UniProt P07550)
T1 construct: expressed in transfected cells; host or cells: frog melanophores
Experiment: frog melanophores transfected with human beta 2 adrenoreceptor, pigment dispersal (light transmittance)
Assay type: cell-based
Conditions: melatonin-induced pigment aggregation, change in light transmittance, read-out: IC50 values at the human beta 2 adrenoreceptor (beta 2 agonist activity)
Protocol: The potencies of the aforementioned compounds were determined using frog melanophores transfected with the human beta 2 adrenoreceptor. The cells were incubated with melatonin to induce pigment aggregation. Pigment dispersal was induced by compounds acting on the human beta 2 adrenoreceptor. The beta 2 agonist activity of test compounds was assessed by their ability to induce a change in light transmittance across a melanophore monolayer (a consequence of pigment dispersal).

T1 sequence (P07550 whole entry): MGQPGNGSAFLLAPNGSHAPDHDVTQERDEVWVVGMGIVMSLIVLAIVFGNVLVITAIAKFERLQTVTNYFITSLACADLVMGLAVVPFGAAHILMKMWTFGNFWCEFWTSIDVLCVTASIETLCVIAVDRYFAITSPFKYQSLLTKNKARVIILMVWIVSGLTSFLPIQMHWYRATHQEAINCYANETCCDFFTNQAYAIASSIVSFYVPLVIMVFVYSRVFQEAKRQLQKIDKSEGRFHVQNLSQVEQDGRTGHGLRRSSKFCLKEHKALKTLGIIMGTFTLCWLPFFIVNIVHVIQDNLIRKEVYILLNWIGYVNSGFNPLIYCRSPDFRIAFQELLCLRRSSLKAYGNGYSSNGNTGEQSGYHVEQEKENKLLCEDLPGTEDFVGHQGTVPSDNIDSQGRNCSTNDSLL

Structure (SMILES)	IC50 [nM]
NS(=O)(=O)c1cccc(CCCCOCCCCCCNC[C@H](O)c2ccc(O)c(NC=O)c2)c1 [Example 1, 3-(4-{[6-({(2R)-2-[3-(Formylamino)-4-hydroxyphenyl]-2-hydroxyethyl}amino)hexyl]oxy}butyl)benzenesulfonamide compound with (2E)-but-2-enedioic acid (2:1)]	< 1000
CC(C)(C)NS(=O)(=O)c1cccc(CCCCOCCCCCCNC[C@H](O)c2ccc(O)c(NC=O)c2)c1 [Example 2, N-(tert-Butyl)-3-(4-{[6-({(2R)-2-[3-(formylamino)-4-hydroxyphenyl]-2-hydroxyethyl}amino)hexyl]oxy}butyl)benzenesulfonamide]	< 1000
